Values quoted from earlier work, collected in patent US12551462B2, “Anti-aging composition with rutin, apigenin, epigallocatechin gallate, lipoic acid and the NAD precursor, niacinamide” (NUCHIDO LIMITED, priority 2018, dated 2026).

Test system: NAD concentration
Settings: Trammell et al. 2016

NC(=O)c1ccc[n+]([C@@H]2O[C@H](CO)[C@@H](O)[C@H]2O)c1 [Niagen, nicotinamide riboside]
Enhancement of NAD (as % baseline): 270%
